Laboratory results reported in US20240109887A1 (Viva Star Biosciences (Suzhou) Co., Ltd., priority 2021, published 2024).

Columns and labels:
KRAS-WT/SOS1 = biological target: T1, KRAS-WT/SOS1 (Homo sapiens, UniProt Q07889); assay: biochemical
T1 sequence (Q07889 1-1333): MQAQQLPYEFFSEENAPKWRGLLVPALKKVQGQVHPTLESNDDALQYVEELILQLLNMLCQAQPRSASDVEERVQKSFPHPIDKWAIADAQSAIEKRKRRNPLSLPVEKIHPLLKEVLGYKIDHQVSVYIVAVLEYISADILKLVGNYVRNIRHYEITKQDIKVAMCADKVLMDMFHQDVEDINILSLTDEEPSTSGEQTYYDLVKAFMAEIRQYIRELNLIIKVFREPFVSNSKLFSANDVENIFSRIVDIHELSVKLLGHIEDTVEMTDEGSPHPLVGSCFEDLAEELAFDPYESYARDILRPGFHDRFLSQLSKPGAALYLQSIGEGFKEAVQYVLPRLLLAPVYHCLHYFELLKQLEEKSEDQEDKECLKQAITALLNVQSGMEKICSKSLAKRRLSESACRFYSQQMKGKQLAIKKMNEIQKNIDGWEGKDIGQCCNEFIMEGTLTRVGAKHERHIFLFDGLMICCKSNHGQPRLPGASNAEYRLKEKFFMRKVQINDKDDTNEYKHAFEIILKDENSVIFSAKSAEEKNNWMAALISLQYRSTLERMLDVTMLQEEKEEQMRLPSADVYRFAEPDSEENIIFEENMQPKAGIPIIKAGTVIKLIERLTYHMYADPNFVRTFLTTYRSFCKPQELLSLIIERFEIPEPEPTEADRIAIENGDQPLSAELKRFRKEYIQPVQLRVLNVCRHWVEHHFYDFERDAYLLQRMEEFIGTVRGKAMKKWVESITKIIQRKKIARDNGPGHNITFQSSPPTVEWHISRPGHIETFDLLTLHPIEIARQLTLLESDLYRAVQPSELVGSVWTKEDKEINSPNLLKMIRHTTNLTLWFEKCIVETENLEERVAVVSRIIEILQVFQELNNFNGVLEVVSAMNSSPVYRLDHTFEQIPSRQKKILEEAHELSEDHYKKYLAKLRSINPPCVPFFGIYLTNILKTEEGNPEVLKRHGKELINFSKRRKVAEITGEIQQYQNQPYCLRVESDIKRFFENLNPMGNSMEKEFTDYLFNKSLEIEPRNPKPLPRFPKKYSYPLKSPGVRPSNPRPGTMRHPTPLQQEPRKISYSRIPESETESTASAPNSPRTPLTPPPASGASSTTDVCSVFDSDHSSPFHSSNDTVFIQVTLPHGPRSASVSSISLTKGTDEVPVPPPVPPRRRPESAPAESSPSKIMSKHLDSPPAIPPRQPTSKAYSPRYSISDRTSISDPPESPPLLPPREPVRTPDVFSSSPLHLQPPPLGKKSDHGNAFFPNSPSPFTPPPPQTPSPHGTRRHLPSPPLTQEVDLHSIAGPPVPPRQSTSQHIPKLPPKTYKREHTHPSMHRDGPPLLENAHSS

KRAS G12D/SOS1 = biological target: T2, KRAS G12D/SOS1 (Homo sapiens, UniProt Q07889); assay: biochemical
T2 sequence (Q07889 1-1333): T1 sequence (Q07889 1-1333)

In the case of `CNCc1ccccc1-c1ccc([C@@H](C)NC(=O)c2cn(C3(C)CC3)c(=O)c3cn[nH]c23)s1` [Example 9, (R)-N-(1-(5-(2-((methylamino)methyl)phenyl)thiophen-2-yl)ethyl)-5-(1-methylcyclopropyl)-4-oxo-4,5-dihydro-1H-pyrazolo[4,3-c]pyridine-7-carboxamide], the IC50 (KRAS-WT/SOS1) is reported as less than 0.1 µM and the IC50 (KRAS G12D/SOS1) is reported as less than 0.1 µM.

Compound `CC(=O)N1CCC(n2cc(C(=O)N[C@H](C)c3cccc4c3CCC4(F)F)c3n[nH]cc3c2=O)CC1` [Example 10, (R)-5-(1-acetylpiperidin-4-yl)-N-(1-(1,1-difluoro-2,3-dihydro-1H-inden-4-yl)ethyl)-4-oxo-4,5-dihydro-2H-pyrazolo[4,3-c]pyridine-7-carboxamide] has an IC50 (KRAS-WT/SOS1) of less than 0.1 µM and an IC50 (KRAS G12D/SOS1) of less than 0.1 µM.

Compound `C[C@@H](NC(=O)c1cn(C2(C)CC2)c(=O)c2c[nH]nc12)c1cccc(C(F)(F)CO)c1` [Example 5, (R)-N-(1-(3-(1,1-difluoro-2-hydroxyethyl)phenyl)ethyl)-5-(1-methylcyclopropyl)-4-oxo-4,5-dihydro-2H-pyrazolo[4,3-c]pyridine-7-carboxamide] has an IC50 (KRAS-WT/SOS1) of less than 0.1 µM and an IC50 (KRAS G12D/SOS1) of less than 0.1 µM.

Compound `COc1c(O[C@H]2CCOC2)cc(C(=O)N[C@H](C)c2cccc3c2CCC3(F)F)c2n[nH]cc12` [Example 29, N-((R)-1-(1,1-difluoro-2,3-dihydro-1H-inden-4-yl)ethyl)-4-methoxy-5-(((S)-tetrahydrofuran-3-yl)oxy)-2H-indazole-7-carboxamide] has an IC50 (KRAS-WT/SOS1) of less than 0.1 µM and an IC50 (KRAS G12D/SOS1) of 0.1 to 0.5 µM.

In the case of `COc1c(O[C@H]2CCOC2)cc(C(=O)N[C@H](C)c2cccc(C(F)(F)F)c2)c2n[nH]cc12` [Example 27, 4-methoxy-5-(((S)-tetrahydrofuran-3-yl)oxy)-N—((R)-1-(3-(trifluoromethyl)phenyl)ethyl)-2H-indazole-7-carboxamide], the IC50 (KRAS-WT/SOS1) is reported as 0.1 to 0.5 µM and the IC50 (KRAS G12D/SOS1) is reported as 0.1 to 0.5 µM.

`COc1c(-c2cnc[nH]2)cc(C(=O)N[C@H](C)c2cccc3c2CCC3(F)F)c2n[nH]cc12` [Example 22, N-[(1R)-1-(1,1-difluoro-2,3-dihydro-1H-inden-4-yl)ethyl]-5-(1H-imidazol-5-yl)-4-methoxy-2H-indazole-7-carboxamide] gave an IC50 (KRAS-WT/SOS1) of 0.1 to 0.5 µM and an IC50 (KRAS G12D/SOS1) of 0.1 to 0.5 µM.

`C[C@@H](NC(=O)c1cn(C2(C)CC2)c(=O)c2cc[nH]c12)c1cccc2c1CCC2(F)F` [Example 41, (R)—N-(1-(1,1-difluoro-2,3-dihydro-1H-inden-4-yl)ethyl)-5-(1-methylcyclopropyl)-4-oxo-4,5-dihydro-1H-pyrrolo[3,2-c]pyridine-7-carboxamide] gave an IC50 (KRAS-WT/SOS1) of less than 0.1 µM and an IC50 (KRAS G12D/SOS1) of less than 0.1 µM.

`COc1c(C2CCCN(C)C2)cc(C(=O)N[C@H](C)c2cccc(C(F)(F)CO)c2)c2[nH]ncc12` (stereo partly drawn) [Example 37, N—((R)-1-(3-(1,1-difluoro-2-hydroxyethyl)phenyl)ethyl)-4-methoxy-5-(1-methylpiperidin-3-yl)-1H-indazole-7-carboxamide] showed an IC50 (KRAS-WT/SOS1) of less than 0.1 µM and an IC50 (KRAS G12D/SOS1) of less than 0.1 µM.

`COc1c(C2CCN(C)CC2)cc(C(=O)N[C@H](C)c2cccc(C(F)(F)CO)c2)c2[nH]ncc12` [Example 34, N-[(1R)-1-[3-(1,1-difluoro-2-hydroxyethyl)phenyl]ethyl]-4-methoxy-5-(1-methylpiperidin-4-yl)-1H-indazole-7-carboxamide] was tested, and the IC50 (KRAS-WT/SOS1) was less than 0.1 µM and the IC50 (KRAS G12D/SOS1) was less than 0.1 µM.

`C[C@@H](NC(=O)c1cn(C2(C)CC2)c(=O)c2cc[nH]c12)c1cccc(C(F)(F)CO)c1` [Example 42, (R)—N-(1-(3-(1,1-difluoro-2-hydroxyethyl)phenyl)ethyl)-5-(1-methylcyclopropyl)-4-oxo-4,5-dihydro-1H-pyrrolo[3,2-c]pyridine-7-carboxamide] showed an IC50 (KRAS-WT/SOS1) of less than 0.1 µM and an IC50 (KRAS G12D/SOS1) of less than 0.1 µM.

With `CNCc1ccccc1-c1csc([C@@H](C)NC(=O)c2cn(C3CC(F)(F)C3)c(=O)c3cn[nH]c23)c1` [Example 15, 5-(3,3-difluorocyclobutyl)-N-[(1R)-1-(4-{2-[(methylamino)methyl]phenyl}thiophen-2-yl)ethyl]-4-oxo-1H,4H,5H-pyrazolo[4,3-c]pyridine-7-carboxamide] the IC50 (KRAS-WT/SOS1) was less than 0.1 µM and the IC50 (KRAS G12D/SOS1) was less than 0.1 µM.

With `C[C@@H](NC(=O)c1cn(C2(C)CC2)c(=O)c2c[nH]nc12)c1cccc2c1CCC2(F)F` [Example 4, (R)-N-(1-(1,1-difluoro-2,3-dihydro-1H-inden-4-yl)ethyl)-5-(1-methylcyclopropyl)-4-oxo-4,5-dihydro-2H-pyrazolo[4,3-c]pyridine-7-carboxamide] the IC50 (KRAS-WT/SOS1) was less than 0.1 µM and the IC50 (KRAS G12D/SOS1) was less than 0.1 µM.

Work on `C[C@@H](NC(=O)c1cn(C2(C)CC2)c(=O)c2cn[nH]c12)c1cccc(C(C)(F)F)c1F` [Example 7, (R)-N-(1-(3-(1,1-difluoroethyl)-2-fluorophenyl)ethyl)-5-(1-methylcyclopropyl)-4-oxo-4,5-dihydro-1H-pyrazolo[4,3-c]pyridine-7-carboxamide] yielded an IC50 (KRAS-WT/SOS1) of less than 0.1 µM and an IC50 (KRAS G12D/SOS1) of 0.1 to 0.5 µM.

`C[C@@H](NC(=O)c1cn(C2CC(F)(F)C2)c(=O)c2cn[nH]c12)c1cccc2c1CCC2(F)F` [Example 13, (R)—N-(1-(1,1-difluoro-2,3-dihydro-1H-inden-4-yl)ethyl)-5-(3,3-difluorocyclobutyl)-4-oxo-4,5-dihydro-1H-pyrazolo[4,3-c]pyridine-7-carboxamide] was tested, and the IC50 (KRAS-WT/SOS1) was less than 0.1 µM and the IC50 (KRAS G12D/SOS1) was less than 0.1 µM.

Compound `COc1c(O[C@H]2CCOC2)cc(C(=O)N[C@H](C)c2cccc(C(F)(F)CO)c2)c2n[nH]cc12` [Example 30, N-((R)-1-(3-(1,1-difluoro-2-hydroxyethyl)phenyl)ethyl)-4-methoxy-5-(((S)-tetrahydrofuran-3-yl)oxy)-2H-indazole-7-carboxamide] has an IC50 (KRAS-WT/SOS1) of 0.1 to 0.5 µM and an IC50 (KRAS G12D/SOS1) of 0.1 to 0.5 µM.

`Cc1c[nH]c2c(C(=O)N[C@H](C)c3cccc4c3CCC4(F)F)cn(C3(C)CC3)c(=O)c12` [Example 21, (R)—N-(1-(1,1-difluoro-2,3-dihydro-1H-inden-4-yl)ethyl)-3-methyl-5-(1-methylcyclopropyl)-4-oxo-4,5-dihydro-1H-pyrrolo[3,2-c]pyridine-7-carboxamide] gave an IC50 (KRAS-WT/SOS1) of less than 0.1 µM and an IC50 (KRAS G12D/SOS1) of 0.1 to 0.5 µM.

For `COc1c(O[C@H]2CCOC2)cc(C(=O)N[C@H](C)c2cc(N)cc(C(F)(F)F)c2)c2n[nH]cc12` [Example 28, N-((R)-1-(3-amino-5-(trifluoromethyl)phenyl)ethyl)-4-methoxy-5-(((S)-tetrahydrofuran-3-yl)oxy)-2H-indazole-7-carboxamide], the IC50 (KRAS-WT/SOS1) was 0.1 to 0.5 µM and the IC50 (KRAS G12D/SOS1) was 0.1 to 0.5 µM.

`COc1c(-c2cnc[nH]2)cc(C(=O)N[C@H](C)c2cccc(C(F)(F)CO)c2)c2n[nH]cc12` [Example 23, N-[(1R)-1-[3-(1,1-difluoro-2-hydroxyethyl)phenyl]ethyl]-5-(1H-imidazol-5-yl)-4-methoxy-2H-indazole-7-carboxamide] showed an IC50 (KRAS-WT/SOS1) of 0.1 to 0.5 µM and an IC50 (KRAS G12D/SOS1) of 0.1 to 0.5 µM.

Work on `COc1c(CN(C)C)cc(C(=O)N[C@H](C)c2cccc(C(F)(F)CO)c2)c2n[nH]cc12` [Example 20, N-[(1R)-1-[3-(1,1-difluoro-2-hydroxyethyl)phenyl]ethyl]-5-[(dimethylamino)methyl]-4-methoxy-2H-indazole-7-carboxamide] yielded an IC50 (KRAS-WT/SOS1) of 0.1 to 0.5 µM and an IC50 (KRAS G12D/SOS1) of 0.1 to 0.5 µM.

For `COc1c(N2CCN(C)CC2)cc(C(=O)N[C@H](C)c2cccc(C(F)(F)CO)c2)c2[nH]ncc12` [Example 32, N-[(1R)-1-[3-(1,1-difluoro-2-hydroxyethyl)phenyl]ethyl]-4-methoxy-5-(4-methylpiperazin-1-yl)-1H-indazole-7-carboxamide], the IC50 (KRAS-WT/SOS1) was less than 0.1 µM and the IC50 (KRAS G12D/SOS1) was less than 0.1 µM.
